In patent US8937091B2 (Japan Science and Technology Agency, priority 2009, dated 2015):

Tests used:
[1] = test system: SOCE (store operated calcium entry) in CHO cells; experiment: Assay of SOCE (store operated calcium entry)-inhibiting action; assay type: cell-based, Chinese hamster; details: Cricetulus griseus, CHO, CHO cells, thapsigargin, read-out: SOCE level (percentage of inhibition); for inhibition at 10 µM: test compound 10 μmol; for inhibition at 30 µM: test compound 30 μmol; for inhibition at 100 µM: test compound 100 μmol
Summary of the method: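 CHO cells in calcium-free BSS received compound, then 1 μM thapsigargin 2 min later to deplete stores; after 9 min, 2 mM calcium chloride (final) added. Percent inhibition of the rise in intracellular calcium determined at various compound concentrations.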

[2] = test system: IICR (IP3 induced calcium release) in CHO cells; experiment: Assay of IICR (IP3 induced calcium release)-inhibiting action; assay type: cell-based, Chinese hamster; details: Cricetulus griseus, CHO, CHO cells, 10 μM ATP, read-out: IICR level (percentage of inhibition); for inhibition at 10 µM: test compound 10 μmol; for inhibition at 30 µM: test compound 30 μmol; for inhibition at 100 µM: test compound 100 μmol
Summary of the method: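 CHO cell medium replaced with calcium-containing BSS; compound added 1 min later, then 10 μM ATP after a further 2 min. Percent inhibition of the ATP-evoked rise in intracellular calcium determined at each compound concentration.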

Compound | inhibition at 10 µM [1] [%] | inhibition at 30 µM [1] [%] | inhibition at 100 µM [1] [%] | inhibition at 10 µM [2] [%] | inhibition at 30 µM [2] [%] | inhibition at 100 µM [2] [%]
Cc1cccc2cc(C(=O)CCN(C)Cc3ccccc3)ccc12 [Example 78, 2-(N-methylbenzyl)aminoethyl-5-methyl-2-naphthylketone] | 10 | 20 | 50 | 20 | 70 | 90
O=C(CCN(c1ccccc1)c1ccccc1)c1cccc2ccccc12 [Example 70, 2-N-diphenylaminoethyl naphthylketone] | 0 | 10 | 20 | 10 | 0 | 40
O=C(CCNc1ccccc1O)c1ccc(Br)s1 [Example 336, 2-(N-hydroxyphenyl)aminoethyl-5-bromo-2-thienylketone] | 10 | 0 | 0 | 20 | 10 | 60
C=CC(=O)c1cccc2ccccc12 [Example 68, 1-acryloylnaphthalene] | 0 | 10 | 70 | 80 | 90 | 95
CCN(CCC(=O)c1cccs1)Cc1ccccc1 [Example 253, 2-(N-benzylethyl)aminoethyl-2-thiophenylketone] | 0 | 10 | 40 | 20 | 0 | 20
CN(CCC(=O)c1ccco1)Cc1ccccc1 [Example 233, 2-(N-benzylmethyl)aminoethyl-2-furylketone] | 0 | 0 | 10 | 30 | 70 | 80
CCCCN(CCO)CCC(=O)c1ccc2c(Cl)cccc2c1 [Example 91, 2-(N-2-hydroxyethylbutyl)aminoethyl-5-chloro-2-naphthylketone] | 0 | 10 | 90 | 20 | 90 | 100
O=C(CCNCCc1cnc[nH]1)c1ccc(Br)s1 [Example 364, 2-(4-imidazolylethyl)aminoethyl-5-bromo-2-thienylketone] | 24 | 49 | 70 | 0 | 0 | 40
CC(C)N(CCC(=O)c1ccc(Cl)cc1)Cc1ccccc1 [Example 310, 2-(N-benzylisopropyl)aminoethyl-4-chloro-phenylketone] | 0 | 0 | 10 | 80 | 80 | 70
CC(C)N(CCC(=O)c1nccs1)Cc1ccccc1 [Example 120, 2-(N-isopropylbenzyl)aminoethyl-2-thiazolylketone] | 0 | 0 | 20 | 10 | 90 | 100
CN(CCC(=O)c1cccs1)Cc1ccccc1 [Example 125, 2-(N-methylbenzyl)aminoethyl-2-thiophenylketone] | 0 | 0 | 0 | 0 | 30 | 70
Cc1cccc2cc(C(=O)CCN3CCCCC3)ccc12 [Example 81, 2-piperidinoethyl-5-methyl-2-naphthylketone] | 0 | 10 | 40 | 0 | 10 | 30
CN(CCC(=O)c1nccs1)Cc1ccccc1 [Example 258, 2-(N-benzylmethyl)aminoethyl-2-thiazolylketone] | 0 | 0 | 0 | 20 | 0 | 20
Cc1cc(C(=O)CCN(Cc2ccccc2)C(C)C)oc1C [Example 225, 2-(N-isopropylbenzyl)aminoethyl-4,5-dimethyl-2-furylketone] | 10 | 30 | 70 | 20 | 30 | 90
CC(C)N(CCC(=O)n1nnc2ccccc21)Cc1ccccc1 [Example 295, 2-(N-isopropylbenzyl)aminoethyl-1-benzotriazoketone] | 0 | 0 | 0 | 80 | 70 | 60
CN(CCC(=O)c1ccc(Oc2ccccc2)cc1)Cc1ccccc1 [Example 86, 2-(N-methylbenzyl)aminoethyl-4-phenoxyphenylketone] | 0 | 20 | 50 | 30 | 70 | 95
O=C(CCN1CCCC1CO)c1cnccn1 (stereo not drawn) [Example 282, 2-(2-hydroxymethylpyrrolidino)ethyl-2-pyrazylketone] |  | 0 | 0 | 0 | 20 | 50
O=C(CCNCCSSCCNCCC(=O)c1ccc(I)s1)c1ccc(I)s1 [Example 410] | 20 | 40 | 50 | 59 | 65 | 88
O=C(CCN(c1ccccc1)c1ccccc1)c1ccccn1 [Example 185, 2-(N,N-diphenyl)aminoethyl-2-pyridylketone] | 0 | 10 | 20 | 0 | 10 | 20
NCC(O)CNCCC(=O)c1ccc(Br)s1 (stereo not drawn) [Example 343, 2-(N-2-hydroxy-3-aminopropyl)aminoethyl-5-bromo-2-thienylketone] | 0 | 0 | 26 | 50 | 70 | 80
O=C(CCN1CCN(c2ccco2)CC1)c1ccc(F)cc1 [Example 211, 2-(N-2-furylpiperadino)ethyl-4-fluorophenylketone] | 0 | 10 | 30 | 30 | 20 | 20
Cc1csc(C(=O)CCN(Cc2ccccc2)C(C)(C)C)c1 [Example 315, 2-(N-benzyl-t-butyl)aminoethyl-4-methyl-2-thienylketone] | 0 | 0 | 30 | 80 | 90 | 100
O=C(CCN(CCO)CCO)n1nnc2ccccc21 [Example 296, 2-bis(N-2-hydroxyethyl)aminoethyl-1-benzotriazoketone] | 0 | 0 | 20 | 0 | 50 | 60
Cc1csc(C(=O)CCN(Cc2ccccc2)C(C)C)c1 [Example 321, 2-(N-benzylisopropyl)aminoethyl-4-methyl-2-thienylketone] | 0 | 0 | 0 | 20 | 70 | 100
CC(C)N(CCC(=O)c1cc2ccccc2s1)Cc1ccccc1 [Example 283, 2-(N-isopropylbenzyl)aminoethyl-2-benzothienylketone] |  | 0 | 40 | 50 | 80 | 50
O=C(CCNCCc1ccccc1)c1ccco1 [Example 300, 2-(N-phenethyl)aminoethyl-2-furylketone] |  | 20 | 40 | 30 | 0 | 10
O=C(CCN(CCO)Cc1ccccc1)c1ccc2c(Cl)cccc2c1 [Example 89, 2-(N-2-hydroxyethylbenzyl)aminoethyl-5-chloro-2-naphthylketone] | 0 | 10 | 80 | 30 | 80 | 100
CCN(CCC(=O)c1ccc(Br)s1)Cc1ccccc1 [Example 301, 2-(N-ethylbenzyl)aminoethyl-5-bromo-2-thienylketone] | 20 | 30 | 40 | 70 | 70 | 90
